According to the supplement of paper PMC10307832:

What was measured:
Test in all cases: relative viability (nuclei count vs DMSO), 5 days (fraction); higher = more cells survive
NCI-H1792 = tested on: NCI-H1792
Summary of the method: (§1)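 Lung cancer cell lines in 1536-well plates got either a single drug or a fixed anchor-drug dose together with five library-drug doses (not always all listed) in √10 steps, by pin tool, on the day after seeding. Nuclei were counted after 5 days, and relative viability is the treated-to-vehicle ratio of nuclei counts. Values are medians of duplicate plates.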

NCI-H1395 = tested on: NCI-H1395
Summary of the method: as §1

NCI-H2126 = tested on: NCI-H2126
Summary of the method: as §1

NCI-H1944 = tested on: NCI-H1944
Summary of the method: as §1

CAL-12T = tested on: CAL-12T
Summary of the method: as §1

RERF-LC-KJ = tested on: RERF-LC-KJ
Summary of the method: as §1

LXF-289 = tested on: LXF-289
Summary of the method: as §1

LCLC-103H = tested on: LCLC-103H
Summary of the method: as §1

LU99A = tested on: LU99A
Summary of the method: as §1

HCC-827 = tested on: HCC-827
Summary of the method: as §1

NCI-H1666 = tested on: NCI-H1666
Summary of the method: as §1

NCI-H2347 = tested on: NCI-H2347
Summary of the method: as §1

NCI-H358 = tested on: NCI-H358
Summary of the method: as §1

NCI-H3122 = tested on: NCI-H3122
Summary of the method: as §1

ABC-1 = tested on: ABC-1
Summary of the method: as §1

ChaGo-K-1 = tested on: ChaGo-K-1
Summary of the method: as §1

NCI-H1793 = tested on: NCI-H1793
Summary of the method: as §1

HCC-44 = tested on: HCC-44
Summary of the method: as §1

NCI-H322M = tested on: NCI-H322M
Summary of the method: as §1

SK-LU-1 = tested on: SK-LU-1
Summary of the method: as §1

NCI-H520 = tested on: NCI-H520
Summary of the method: as §1

NCI-H1755 = tested on: NCI-H1755
Summary of the method: as §1

`Cc1cn(-c2cc(NC(=O)c3ccc(C)c(Nc4nccc(-c5cccnc5)n4)c3)cc(C(F)(F)F)c2)cn1` [Nilotinib] + CS(=O)(=O)N1CCN(Cc2cc3nc(-c4cccc5[nH]ncc45)nc(N4CCOCC4)c3s2)CC1 [Pictilisib] (partner 1 µM) gave a relative viability (NCI-H1792; first compound 0.001 µM) of 0.209, a relative viability (NCI-H1792; first compound 0.01 µM) of 0.266 and a relative viability (NCI-H1395; first compound 0.001 µM) of 0.711. For the same compound, the relative viability (NCI-H1395; first compound 0.003162 µM) was 0.581, the relative viability (NCI-H1395; first compound 0.01 µM) was 0.566 and the relative viability (NCI-H1395; first compound 0.03162 µM) was 0.552. It also gave a relative viability (NCI-H1395; first compound 0.1 µM) of 0.401, a relative viability (NCI-H2126; first compound 0.001 µM) of 0.494 and a relative viability (NCI-H2126; first compound 0.003162 µM) of 0.501. For the same compound, the relative viability (NCI-H2126; first compound 0.01 µM) was 0.393, the relative viability (NCI-H2126; first compound 0.03162 µM) was 0.546 and the relative viability (NCI-H2126; first compound 0.1 µM) was 0.378. For the same compound, the relative viability (NCI-H1944; first compound 0.001 µM) was 0.355, the relative viability (NCI-H1944; first compound 0.003162 µM) was 0.342 and the relative viability (NCI-H1944; first compound 0.01 µM) was 0.358. It also gave a relative viability (NCI-H1944; first compound 0.03162 µM) of 0.345, a relative viability (NCI-H1944; first compound 0.1 µM) of 0.234 and a relative viability (CAL-12T; first compound 0.001 µM) of 0.45. It also gave a relative viability (CAL-12T; first compound 0.01 µM) of 0.354, a relative viability (CAL-12T; first compound 0.03162 µM) of 0.307 and a relative viability (CAL-12T; first compound 0.1 µM) of 0.398. For the same compound, the relative viability (RERF-LC-KJ; first compound 0.001 µM) was 0.549, the relative viability (RERF-LC-KJ; first compound 0.003162 µM) was 0.572 and the relative viability (RERF-LC-KJ; first compound 0.01 µM) was 0.533. The relative viability (RERF-LC-KJ; first compound 0.03162 µM) was 0.591, the relative viability (RERF-LC-KJ; first compound 0.1 µM) was 0.55 and the relative viability (LXF-289; first compound 0.001 µM) was 0.837. It also gave a relative viability (LXF-289; first compound 0.003162 µM) of 0.946, a relative viability (LXF-289; first compound 0.01 µM) of 0.858 and a relative viability (LXF-289; first compound 0.03162 µM) of 0.667. The relative viability (LXF-289; first compound 0.1 µM) was 0.335, the relative viability (LCLC-103H; first compound 0.001 µM) was 0.649 and the relative viability (LCLC-103H; first compound 0.003162 µM) was 0.638. The relative viability (LCLC-103H; first compound 0.03162 µM) was 0.755, the relative viability (LCLC-103H; first compound 0.1 µM) was 0.421 and the relative viability (LU99A; first compound 0.001 µM) was 0.295. It also gave a relative viability (LU99A; first compound 0.003162 µM) of 0.412, a relative viability (LU99A; first compound 0.01 µM) of 0.328 and a relative viability (LU99A; first compound 0.03162 µM) of 0.342. The relative viability (LU99A; first compound 0.1 µM) was 0.277, the relative viability (HCC-827; first compound 0.001 µM) was 0.685 and the relative viability (HCC-827; first compound 0.003162 µM) was 0.985. For the same compound, the relative viability (HCC-827; first compound 0.01 µM) was 1.15, the relative viability (HCC-827; first compound 0.03162 µM) was 0.829 and the relative viability (HCC-827; first compound 0.1 µM) was 0.965. The relative viability (NCI-H1666; first compound 0.001 µM) was 0.348, the relative viability (NCI-H1666; first compound 0.003162 µM) was 0.319 and the relative viability (NCI-H1666; first compound 0.01 µM) was 0.373. It also gave a relative viability (NCI-H1666; first compound 0.03162 µM) of 0.463, a relative viability (NCI-H1666; first compound 0.1 µM) of 0.397 and a relative viability (NCI-H2347; first compound 0.001 µM) of 0.644. For the same compound, the relative viability (NCI-H2347; first compound 0.003162 µM) was 0.679, the relative viability (NCI-H2347; first compound 0.01 µM) was 0.717 and the relative viability (NCI-H2347; first compound 0.03162 µM) was 0.635. For the same compound, the relative viability (NCI-H2347; first compound 0.1 µM) was 0.401, the relative viability (NCI-H358; first compound 0.001 µM) was 0.375 and the relative viability (NCI-H358; first compound 0.003162 µM) was 0.438. The relative viability (NCI-H358; first compound 0.01 µM) was 0.348, the relative viability (NCI-H358; first compound 0.03162 µM) was 0.444 and the relative viability (NCI-H358; first compound 0.1 µM) was 0.301. It also gave a relative viability (NCI-H3122; first compound 0.001 µM) of 0.666, a relative viability (NCI-H3122; first compound 0.003162 µM) of 0.846 and a relative viability (NCI-H3122; first compound 0.01 µM) of 0.808. For the same compound, the relative viability (NCI-H3122; first compound 0.03162 µM) was 0.473, the relative viability (NCI-H3122; first compound 0.1 µM) was 0.436 and the relative viability (ABC-1; first compound 0.001 µM) was 0.758. The relative viability (ABC-1; first compound 0.003162 µM) was 0.697, the relative viability (ABC-1; first compound 0.01 µM) was 0.788 and the relative viability (ABC-1; first compound 0.03162 µM) was 0.619. The relative viability (ABC-1; first compound 0.1 µM) was 0.346, the relative viability (ChaGo-K-1; first compound 0.001 µM) was 1.22 and the relative viability (ChaGo-K-1; first compound 0.003162 µM) was 0.581. It also gave a relative viability (ChaGo-K-1; first compound 0.01 µM) of 0.654, a relative viability (ChaGo-K-1; first compound 0.03162 µM) of 0.315 and a relative viability (ChaGo-K-1; first compound 0.1 µM) of 0.444. The relative viability (NCI-H1793; first compound 0.003162 µM) was 0.32, the relative viability (NCI-H1793; first compound 0.01 µM) was 0.31 and the relative viability (NCI-H1793; first compound 0.03162 µM) was 0.31. For the same compound, the relative viability (NCI-H1793; first compound 0.1 µM) was 0.235, the relative viability (HCC-44; first compound 0.001 µM) was 0.607 and the relative viability (HCC-44; first compound 0.003162 µM) was 0.743. For the same compound, the relative viability (HCC-44; first compound 0.01 µM) was 0.589, the relative viability (HCC-44; first compound 0.03162 µM) was 0.517 and the relative viability (HCC-44; first compound 0.1 µM) was 0.37. The relative viability (NCI-H322M; first compound 0.001 µM) was 0.651, the relative viability (NCI-H322M; first compound 0.003162 µM) was 0.503 and the relative viability (NCI-H322M; first compound 0.03162 µM) was 0.529. It also gave a relative viability (NCI-H322M; first compound 0.1 µM) of 0.528, a relative viability (SK-LU-1; first compound 0.001 µM) of 0.499 and a relative viability (SK-LU-1; first compound 0.003162 µM) of 0.526. The relative viability (SK-LU-1; first compound 0.01 µM) was 0.563, the relative viability (SK-LU-1; first compound 0.03162 µM) was 0.366 and the relative viability (SK-LU-1; first compound 0.1 µM) was 0.499. For the same compound, the relative viability (NCI-H520; first compound 0.001 µM) was 0.283, the relative viability (NCI-H520; first compound 0.01 µM) was 0.296 and the relative viability (NCI-H520; first compound 0.03162 µM) was 0.283. For the same compound, the relative viability (NCI-H520; first compound 0.1 µM) was 0.232, the relative viability (NCI-H1755; first compound 0.001 µM) was 0.445 and the relative viability (NCI-H1755; first compound 0.003162 µM) was 0.466. It also gave a relative viability (NCI-H1755; first compound 0.01 µM) of 0.411, a relative viability (NCI-H1755; first compound 0.03162 µM) of 0.34 and a relative viability (NCI-H1755; first compound 0.1 µM) of 0.261.
